Experimental data taken from patent publication US4783528A, “Steroidal lariat ethers” (University of Miami (Department of Chemistry), priority 1987, dated 1988).

Assays:
[1] = Cation binding constant (log KS) for K+ in anhydrous methanol at 25° C.; conditions: decadic (log10) logarithm of equilibrium constant lariat ether + cation = complex
Protocol: (§1) As a result, only the macroring itself is expected to provide cation binding sites.
(§2) ^a Binding constants determined in anhydrous methanol solution at
(§3) 25° C. as described in the articles by Dishong et al., and Schultz
(§4) Notes. a. Binding constants determined in anhydrous methanol solution at 25° C. as described in the articles by Dishong et al., and Schultz et al. referred to above.
(§5) The binding constant, usually referred to as KS, is the equilibrium constant for the reaction: lariat ether + cation .revreaction. complex. The values in the table are expressed as decadic (log10) logarithms.

[2] = Cation binding constant (log KS) for Na+ in anhydrous methanol at 25° C.; conditions: decadic (log10) logarithm of equilibrium constant lariat ether + cation = complex
Protocol: as §1, §2, §3, §4, §5

Molecule | Cation Binding Constants (log KS), K^+ [1] | Cation Binding Constants (log KS), Na^+ [2]
CC(C)CCC[C@@H](C)[C@H]1CC[C@H]2[C@@H]3CC=C4C[C@@H](OC(=O)CN5CCOCCOCCOCCOCC5)CC[C@]4(C)[C@H]3CC[C@]12C [Compound 4, Cholesteryl (4-aza-15-crown-5)acetate] | 4.03 | 4.10
CC(C)CCC[C@@H](C)[C@H]1CC[C@H]2[C@@H]3CC=C4C[C@@H](OC(=O)CN5CCOCCOCCOCCOCCOCC5)CC[C@]4(C)[C@H]3CC[C@]12C [Compound 5, Cholesteryl (4-aza-18-crown-6) acetate] | 5.75 | 4.56
CC(C)CCC[C@@H](C)[C@H]1CC[C@H]2[C@@H]3CC[C@H]4C[C@@H](OC(=O)CN5CCOCCOCCOCCOCC5)CC[C@]4(C)[C@H]3CC[C@]12C [Compound 6, Cholestanyl (4-aza-15-crown-5) acetate] | 4.03 | 4.12
CC(C)CCC[C@@H](C)[C@H]1CC[C@H]2[C@@H]3CC=C4C[C@@H](OC(=O)N5CCOCCOCCOCCOCC5)CC[C@]4(C)[C@H]3CC[C@]12C [Compound 8, N-(Cholesteryloxycarbonyl)aza-15-crown-5] | < 1.5 | < 1.5
CC(C)CCC[C@@H](C)[C@H]1CC[C@H]2[C@@H]3CC=C4C[C@@H](OC(=O)N5CCOCCOCCOCCOCCOCC5)CC[C@]4(C)[C@H]3CC[C@]12C [Compound 9, N-(Cholesteryloxycarbonyl)aza-18-crown-6] | 1.78 | 2.07
Cholestanyl (4-aza-18-crown-6)acetate [Compound 7] | 5.78 | 4.58
